In PubChem BioAssay AID258 (DTP/NCI, 2004):
Values joined by “and” are separate entries in the source; they are usually repeats but may differ in a detail not shown here. Equal values may be shown once. Toxic doses and inconclusive results are not listed.

Test system: CD2F1 mice, L1210 leukemia sc, survival T/C
Assay: NCI In Vivo Anticancer Drug Screen. Data for tumor model L1210 Leukemia (subcutaneous) in CD2F1 (CDF1) mice
Settings: higher = longer survival
Method: The antitumor activity of compounds was measured in mice bearing transplantable tumors. Survival or tumor size were measured and the results are expressed as the measurement made in the treated group (T) divided by the measurement made in the vehicle treated control group (C). The tumor model used in this assay is L1210 Leukemia (subcutaneous) in CD2F1 (CDF1) mice

SMILES: CC[n+]1c(-c2ccccc2)c2cc(N)ccc2c2ccc(N)cc21
- T/C (endpoint: median survival time, dose: 5.0 mg/kg/injection, schedule: Q01DX Z (sc), vehicle: carboxymethylcellulose (CMC)): 100 % of control
- T/C (endpoint: median survival time, dose: 8.4 mg/kg/injection, schedule: Q01DX Z (sc), vehicle: carboxymethylcellulose (CMC)): 94 % of control
- T/C (endpoint: median survival time, dose: 14.0 mg/kg/injection, schedule: Q01DX Z (sc), vehicle: carboxymethylcellulose (CMC)): 100 % of control
- T/C (endpoint: median survival time, dose: 23.0 mg/kg/injection, schedule: Q01DX Z (sc), vehicle: carboxymethylcellulose (CMC)): 100 % of control
- T/C (endpoint: median survival time, dose: 39.0 mg/kg/injection, schedule: Q01DX Z (sc), vehicle: carboxymethylcellulose (CMC)): 105 % of control
- T/C (endpoint: median survival time, dose: 64.0 mg/kg/injection, schedule: Q01DX Z (sc), vehicle: carboxymethylcellulose (CMC)): 111 % of control

SMILES: CN(C)/N=N/c1nc[nH]c1C(N)=O
- T/C (endpoint: mean survival time, dose: 39.0 mg/kg/injection, schedule: Q01DX009 (sc), vehicle: steriod suspending solution): 118 % of control
- T/C (endpoint: mean survival time, dose: 50.0 mg/kg/injection, schedule: Q01DX017 (sc), vehicle: steriod suspending solution): 117 % of control
- T/C (endpoint: mean survival time, dose: 65.0 mg/kg/injection, schedule: Q01DX009 (sc), vehicle: steriod suspending solution): 118 % of control
- T/C (endpoint: mean survival time, dose: 200.0 mg/kg/injection, schedule: Q01DX017 (sc), vehicle: steriod suspending solution): 156 % of control
- T/C (endpoint: mean survival time, dose: 400.0 mg/kg/injection, schedule: Q01DX017 (sc), vehicle: steriod suspending solution): 172 % of control
- T/C (endpoint: median survival time, dose: 6.25 mg/kg/injection, schedule: Q01DX009 (ip), vehicle: saline): 104 % of control
- T/C (endpoint: median survival time, dose: 12.5 mg/kg/injection, schedule: Q01DX009 (ip), vehicle: saline): 121 % of control
- T/C (endpoint: median survival time, dose: 39.0 mg/kg/injection, schedule: Q01DX009 (sc), vehicle: steriod suspending solution): 114 % of control
- T/C (endpoint: median survival time, dose: 39.0 mg/kg/injection, schedule: Q01DX Z (sc), vehicle: steriod suspending solution): 111 % of control
- T/C (endpoint: median survival time, dose: 50.0 mg/kg/injection, schedule: Q01DX017 (sc), vehicle: steriod suspending solution): 118 % of control and 122 % of control
- T/C (endpoint: median survival time, dose: 65.0 mg/kg/injection, schedule: Q01DX009 (sc), vehicle: steriod suspending solution): 117 % of control
- T/C (endpoint: median survival time, dose: 65.0 mg/kg/injection, schedule: Q01DX Z (sc), vehicle: carboxymethylcellulose (CMC)): 100 % of control
- T/C (endpoint: median survival time, dose: 65.0 mg/kg/injection, schedule: Q01DX Z (sc), vehicle: steriod suspending solution): 116 % of control
- T/C (endpoint: median survival time, dose: 100.0 mg/kg/injection, schedule: Q01DX009 (ip), vehicle: saline with Tween-80): 157 % of control
- T/C (endpoint: median survival time, dose: 100.0 mg/kg/injection, schedule: Q01DX009 (ip), vehicle: saline): 157 % of control
- T/C (endpoint: median survival time, dose: 100.0 mg/kg/injection, schedule: Q01DX009 (sc), vehicle: saline): 151 % of control
- T/C (endpoint: median survival time, dose: 108.0 mg/kg/injection, schedule: Q01DX Z (sc), vehicle: carboxymethylcellulose (CMC)): 100 % of control
- T/C (endpoint: median survival time, dose: 150.0 mg/kg/injection, schedule: Q01DX009 (ip), vehicle: saline): 178 % of control
- T/C (endpoint: median survival time, dose: 180.0 mg/kg/injection, schedule: Q01DX Z (sc), vehicle: carboxymethylcellulose (CMC)): 100 % of control
- T/C (endpoint: median survival time, dose: 200.0 mg/kg/injection, schedule: Q01DX009 (ip), vehicle: saline with Tween-80): 160 % of control
- T/C (endpoint: median survival time, dose: 200.0 mg/kg/injection, schedule: Q01DX009 (ip), vehicle: saline): 166 % of control
- T/C (endpoint: median survival time, dose: 200.0 mg/kg/injection, schedule: Q01DX017 (sc), vehicle: steriod suspending solution): 152 % of control and 155 % of control
- T/C (endpoint: median survival time, dose: 225.0 mg/kg/injection, schedule: Q01DX009 (sc), vehicle: saline): 186 % of control
- T/C (endpoint: median survival time, dose: 300.0 mg/kg/injection, schedule: Q01DX009 (ip), vehicle: saline): 172 % of control
- T/C (endpoint: median survival time, dose: 300.0 mg/kg/injection, schedule: Q01DX009 (sc), vehicle: steriod suspending solution): 153 % of control
- T/C (endpoint: median survival time, dose: 300.0 mg/kg/injection, schedule: Q01DX Z (sc), vehicle: carboxymethylcellulose (CMC)): 100 % of control
- T/C (endpoint: median survival time, dose: 300.0 mg/kg/injection, schedule: Q01DX Z (sc), vehicle: steriod suspending solution): 155 % of control
- T/C (endpoint: median survival time, dose: 400.0 mg/kg/injection, schedule: Q01DX017 (sc), vehicle: steriod suspending solution): 175 % of control and 177 % of control
- T/C (endpoint: median survival time, dose: 500.0 mg/kg/injection, schedule: Q01DX Z (sc), vehicle: carboxymethylcellulose (CMC)): 111 % of control and 100 % of control
- T/C (endpoint: median survival time, dose: 600.0 mg/kg/injection, schedule: Q01DX009 (sc), vehicle: saline + alcohol): 160 % of control
- T/C (endpoint: median survival time, dose: 600.0 mg/kg/injection, schedule: Q01DX009 (sc), vehicle: saline): 118 % of control
- T/C (endpoint: median survival time, dose: 800.0 mg/kg/injection, schedule: Q01DX009 (ip), vehicle: saline with Tween-80): 96 % of control
- T/C (endpoint: median survival time, dose: 833.0 mg/kg/injection, schedule: Q01DX Z (sc), vehicle: carboxymethylcellulose (CMC)): 150 % of control
- T/C (endpoint: median survival time, dose: 900.0 mg/kg/injection, schedule: Q01DX009 (sc), vehicle: saline + alcohol): 155 % of control
- T/C (endpoint: median survival time, dose: 1200.0 mg/kg/injection, schedule: Q01DX009 (sc), vehicle: saline): 90 % of control
- T/C (endpoint: median survival time, dose: 1388.0 mg/kg/injection, schedule: Q01DX Z (sc), vehicle: carboxymethylcellulose (CMC)): 155 % of control
